These compounds were tested on HCV replicon (assay: HCV replicon assay (NPT ELISA in HCV replicon-containing cells)). Conditions: Hepatitis C virus, 72 h, read-out: EC50 for inhibition of viral RNA replicon replication in Huh9-13 cells.
Type: cell-based
Procedure: The compounds claimed herein were tested for the ability to inhibit viral replication of the Hepatitis C replicon in cultured cells in which the HCV replicon construct has been incorporated. The HCV replicon system was described by Bartenschlager, et. al (Science, 285, pp. 110-113 (1999)). The replicon system is predictive of in vivo anti-HCV activity; compounds that are active in humans uniformly evidence activity in the replicon assay.
In this assay HCV replicon containing cells are treated with different concentrations of the test compound to ascertain the ability of the test compound to suppress replication of the HCV replicon. As a positive control, HCV replicon-containing cells are treated with different concentrations of interferon alpha, a known inhibitor of HCV replication. The replicon assay system includes Neomycin Phosphotransferase (NPT) as a component of the replicon itself in order to detect the transcription of replicon gene products in the host cell. Cells in which the HCV replicon is actively replicating have high levels of NPT; the level of NPT is proportional to HCV replication. […] The NPT level of each sample is measured using a captured ELISA.
A protocol for testing compounds for the ability to inhibit viral replication of the Hepatitis C replicon cultured cells in which the replicon construct has been incorporated, follows.
The HCV replicon contains, 5-′3′, the HCV-IRES, the neomycin phosphotransferase (neo) gene, the IRES of encephalomyocarditis virus, which directs translation of HCV sequences NS3 to NS5B, and the 3′-NTR. The sequence of the HCV replicon has been deposited in GenBank (Accession no. AJ242652).
The replicon is transfected into Huh-7 cells using standard methods such as electroporation.
The equipment and materials include, but are not limited to, Huh-7 HCV replicon-containing cells, maintenance media (DMEM (Dulbecco's modified Eagle media) supplemented with 10% FBS, L-glutamine, non-essential amino acids, penicillin (100 units/ml), streptomycin (100 micrograms/ml), and 500 micrograms/ml of Geneticin G418), screening media (DMEM supplemented with 10% FBS, L-glutamine, and non-essential amino acid, penicillin (100 units/ml) and streptomycin (100 micrograms/ml)), 96 well tissue culture plates (flat bottom), 96 well plates (U bottom for drug dilution), Interferon alpha for positive control, fixation reagent (such as methanol: acetone), primary antibody (rabbit anti-NPTII), secondary antibody: Eu-N1 l, and enhancement solution.
HCV replicon-containing cells are rinsed with once PBS once; 2 mls of trypsin is added. Cells are incubated at 37° C. in a 5% CO2 incubator for 3-5 minutes. 10 mls of complete medium is added to stop the reaction. Cells are blown gently, put into a 15 ml tube, and spun at 1200 rpm for four minutes. The trypsin/medium solution is removed and 5 mls of medium (500 ml DMEM (high glucose)) from BRL catalog #12430-054; 50 mls 10% FBS, […] (50 mg/ml, BRL 10131-035), 5 ml MEM non-essential amino acid (100×BRL #11140-050) and 5 ml pen-strep (BRL #15140-148) is added. The cells and media are mixed carefully
Cells are plated with screening medium (500 ml DMEM (BRL #21063-029), 50 ml FBS (BRL #10082-147) and 5 ml MEM non-essential amino acid (BRL #11140-050) at 6000-7500 cells/100 μl/well of 96 well plate (6-7.5×10^5 cells/10 ml/plate). Plates are placed into 37° C. 5% CO2 incubator overnight.
The following morning, drugs (test compounds or interferon alpha) are diluted in 96 well U bottom plates with media or DMSO/media, depending on the final concentration chosen for screening. Generally for 6 concentrations of each test compounds ranging from 10 micromolar to 0.03 micromolar are applied. 100 μl of the test compound dilution is placed in wells of the 96 well plate containing the HCV replicon cells. Media without drug is added to some wells as a negative controls. DMSO is known to affect cell growth. […]

Compound | EC50
CCCCOC(=O)c1ccc(NC(=S)N(C)C(=O)COc2ccccc2C)cc1 [Compound 4, 4-[3-Methyl-3-(2-o-tolyloxy-acetyl)-thioureido]-benzoic acid butyl ester] | 4.3 µM
CCCCOC(=O)c1ccc(NC(=S)NC(=O)COc2ccc(F)cc2)cc1 [Compound 7, 4-{3-[2-(4-Fluoro-phenoxy)-acetyl]-thioureido}-benzoic acid butyl ester] | 3.4 µM
N#Cc1ccc(NC(=S)NC(=O)COc2ccc(Cl)c(Cl)c2)cc1 [Compound 24, 1-(2-(3,4-dichloro-phenoxy)acetyl)-3-(4-cyanophenyl)thiourea] | 12.1 µM
CCCCOC(=O)c1ccc(NC(=S)NC(=O)CSc2ccccc2)cc1 [Compound 36, 4-[3-(2-(Phenylsulfanyl)-acetyl)-thioureido]-benzoic acid butyl ester] | 2.3 µM

Same assay, conditions: Hepatitis C virus, 72 h; HCV replicon-containing Huh-7 cells; three days incubation; read-out: EC50 for inhibition of replication of the HCV replicon

Compound | EC50
CCCCOC(=O)c1ccc(NC(=S)NC(=O)c2ccc3ccccc3c2)cc1 [Compound 1, 4-[3-(Naphthalene-2-carbonyl)-thioureido]-benzoic Acid Butyl Ester] | < 30 µM
CCCCOC(=O)c1ccc(NC(=S)N(C)C(=O)COc2ccccc2)cc1 [Compound 2, 4-[3-Methyl-3-(2-Phenoxy-acetyl)-thioureido]benzoic Acid Butyl Ester] | < 30 µM
O=C(COc1ccc(C2CC2)cc1)NC(=S)NCc1cccs1 [Compound 3, 1-(2-(4-Cylcopropylphenoxy)acetyl)-3-((thiophen-2-yl)methyl)thiourea] | < 30 µM
CCCCOC(=O)c1ccc(NC(=S)N(C)C(=O)COc2ccccc2C)cc1 [Compound 4, 4-[3-Methyl-3-(2-o-tolyloxy-acetyl)-thioureido]-benzoic acid butyl ester] | < 30 µM
CCCCOC(=O)c1ccc(NC(=S)N(C)C(=O)COc2cccc(C)c2)cc1 [Compound 5, 4-[3-Methyl-3-(2-m-tolyloxy-acetyl)-thioureido]-benzoic acid butyl ester] | < 30 µM
CCCCOC(=O)c1ccc(NC(=S)NC(=O)COc2ccc(C)cc2)cc1 [Compound 6, 4-[3-(2-p-tolyloxy-acetyl)-thioureido]-benzoic acid butyl ester] | < 30 µM
CCCCOC(=O)c1ccc(NC(=S)NC(=O)COc2ccc(F)cc2)cc1 [Compound 7, 4-{3-[2-(4-Fluoro-phenoxy)-acetyl]-thioureido}-benzoic acid butyl ester] | < 30 µM
CCCCOC(=O)c1ccc(NC(=S)NC(=O)COc2ccc(OC)cc2)cc1 [Compound 8, 4-{3-[2-(4-Methoxy-phenoxy)-acetyl]-thioureido}-benzoic acid butyl ester] | < 30 µM
O=C(COc1ccccc1)NC(=S)Nc1ccc(F)cc1 [Compound 9, 1-(4-Fluoro-phenyl)-3-(2-phenoxy-acetyl)-thiourea] | < 30 µM
COc1cccc(NC(=S)NC(=O)COc2ccccc2)c1 [Compound 10, 1-(3-Methoxy-phenyl)-3-(2-phenoxy-acetyl)-thiourea] | < 30 µM
COc1ccc(NC(=S)NC(=O)COc2ccccc2)cc1 [Compound 11, 1-(4-Methoxy-phenyl)-3-(2-phenoxy-acetyl)-thiourea] | < 30 µM
O=C(COc1ccccc1)NC(=S)Nc1ccc(Oc2ccccc2)cc1 [Compound 12, 1-(2-Phenoxyacetyl)-3-(4-phenoxyphenyl)thiourea] | < 30 µM
O=C(COc1ccccc1)NC(=S)Nc1ccc(OCc2ccccc2)cc1 [Compound 13, 1-(4-Benzyloxy-phenyl)-3-(2-phenoxy-acetyl)-thiourea] | < 30 µM
O=C(COc1ccccc1)NC(=S)Nc1ccc(-c2ccccc2)cc1 [Compound 14, 1-Biphenyl-4-yl-3-(2-phenoxy-acetyl)-thiourea] | < 30 µM
O=C(COc1ccccc1)NC(=S)Nc1ccc(C2CCCCC2)cc1 [Compound 15, 1-(4-Cyclohexyl-phenyl)-3-(2-phenoxy-acetyl)-thiourea] | < 30 µM
O=C(COc1ccccc1)NC(=S)Nc1ccc(N2CCCCC2)cc1 [Compound 16, 1-[(4-piperidine-1-yl)-phenyl]-3-(2-phenoxy-acetyl)-thiourea] | < 30 µM
CCN(CC)c1ccc(NC(=S)NC(=O)COc2ccccc2)cc1 [Compound 17, 1-(4-(Diethylamino)-phenyl)-3-(2-phenoxy-acetyl)-thiourea] | < 30 µM
O=C(COc1ccccc1)NC(=S)Nc1cccc(Oc2ccccc2)c1 [Compound 18, 1-(2-phenoxy-acetyl)-3-(3-phenoxy-phenyl)-thiourea] | < 30 µM
O=C(COc1ccccc1)NC(=S)Nc1cccc(OCc2ccccc2)c1 [Compound 19, 1-(3-Benzyloxy-phenyl)-3-(2-phenoxy-acetyl)-thiourea] | < 30 µM

Compound | EC50
CC(=O)c1ccccc1NC(=S)NC(=O)COc1ccccc1 [Compound 20, 1-(2-Acetyl-phenyl)-3-(2-phenoxy-acetyl)-thiourea] | < 30 µM
O=C(COc1ccccc1)NC(=S)Nc1ccc2cc(F)ccc2c1 [Compound 21, 1-(6-Fluoro-naphthalen-2-yl)-3-(2-phenoxy-acetyl)-thiourea] | < 30 µM
O=C(COc1ccccc1)NC(=S)Nc1ccc2ncsc2c1 [Compound 22, 1-Benzothiazol-6-yl-3-(2-phenoxy-acetyl)-thiourea] | < 30 µM
O=C(COc1ccccc1)NC(=S)Nc1cnc2ccccc2c1 [Compound 23, 1-(2-Phenoxy-acetyl)-3-quinolin-3-yl-thiourea] | < 30 µM
N#Cc1ccc(NC(=S)NC(=O)COc2ccc(Cl)c(Cl)c2)cc1 [Compound 24, 1-(2-(3,4-dichloro-phenoxy)acetyl)-3-(4-cyanophenyl)thiourea] | < 30 µM
O=C(NC(=S)Nc1cccc(Oc2ccccc2)c1)c1ccccc1O [Compound 25, 1-(2-Hydroxy-benzoyl)-3-(3-phenoxy-phenyl)-thiourea] | < 30 µM
O=C(NC(=S)Nc1cccc(Oc2ccccc2)c1)c1cc2ccccc2o1 [Compound 26, 1-(Benzofuran-2-carbonyl)-3-(3-phenoxy-phenyl)-thiourea] | < 30 µM
O=C(NC(=S)Nc1cccc(OCc2ccccc2)c1)c1cc2ccccc2o1 [Compound 27, 1-(Benzofuran-2-carbonyl)-3-(3-benzyloxy-phenyl)-thiourea] | < 30 µM
O=C(NC(=S)Nc1cccc(OCc2ccccc2)c1)c1cc2ccccc2s1 [Compound 28, 1-(Benzo[b]thiophene-2-carbonyl)-3-(3-benzyloxy-phenyl)-thiourea] | < 30 µM
O=C(NC(=S)Nc1cccc(OCc2ccccc2)c1)c1cc2cc(F)ccc2[nH]1 [Compound 29, 1-(3-Benzyloxy-phenyl)-3-(5-fluoro-1H-indole-2-carbonyl)-thiourea] | < 30 µM
O=C(NC(=S)Nc1ccc(Oc2ccccc2)cc1)c1cc2cc(F)ccc2o1 [Compound 30, 1-(5-Fluoro-benzofuran-2-carbonyl)-3-(4-phenoxy-phenyl)-thiourea] | < 30 µM
Fc1ccc2oc(C(=S)NC(=S)Nc3ccc(Oc4ccccc4)cc3)cc2c1 [Compound 31, 1-(5-Fluoro-benzofuran-2-carbothioyl)-3-(4-phenoxy-phenyl)-thiourea] | < 30 µM
O=C(CCc1ccc(F)cc1)NC(=S)Nc1ccc(Oc2ccccc2)cc1 [Compound 32, 1-[3-(4-Fluoro-phenyl)-proprionyl]-3-(4-phenoxy-phenyl)-thiourea] | < 30 µM
O=C(COc1ccccc1)NC(=S)NC1CCC(Oc2ccccc2)CC1 (stereo not drawn) [Compound 33, 1-(2-Phenoxy-acetyl)-3-(4-phenoxy-cyclohexyl)-thiourea] | < 30 µM
O=C(COc1ccccc1)NC(=S)NCCc1ccccc1 [Compound 34, 1-Phenethyl-3-(2-phenoxy-acetyl)-thiourea] | < 30 µM
CN(CCc1ccccc1)C(=S)NC(=O)COc1ccccc1 [Compound 35, 1-Methyl-1-phenethyl-3-(2-phenoxy-acetyl)-thiourea] | < 30 µM
CCCCOC(=O)c1ccc(NC(=S)NC(=O)CSc2ccccc2)cc1 [Compound 36, 4-[3-(2-(Phenylsulfanyl)-acetyl)-thioureido]-benzoic acid butyl ester] | < 30 µM
O=C(COc1ccccc1)NC(=S)Nc1ccc2c(c1)OCO2 [Compound 37, 1-Benzo[1,3]dioxol-5-yl-3-(2-phenoxy-acetyl)-thiourea] | < 30 µM
O=C(COc1ccccc1)N1CCN(c2cccc(OCc3ccccc3)c2)C1=S [Compound 38] | < 30 µM

From US7094807B2, “Substituted aryl thioureas and related compounds; inhibitors of viral replication” (Achillion Pharmaceuticals, Inc., priority 2002, dated 2006)
